Measurements taken from patent US20210198318A1, “Methods and Compositions for Treating Diseases and Conditions Associated with Gonadotropin Releasing Hormone Receptor” (The Board of Regents of the University of Oklahoma, priority 2018, published 2021).
Non-standard residues stand in square brackets, D forms with d. Residues, ends and D or L forms follow the SMILES beside them. dPhe(4-Cl) = N[C@H](Cc1ccc(Cl)cc1)C(=O)O; d2Nal = N[C@H](Cc1ccc2ccccc2c1)C(=O)O; dCit = NC(=O)NCCC[C@@H](N)C(=O)O; d3Pal = N[C@H](Cc1cccnc1)C(=O)O

Key:
[1] = test system: Abs present in the sera; assay: Mimotope PIN ELISA with sequential GnRHR-ECL2 synthetic peptides and PCOS serum; type: binding, human; settings: sera 1:200; 8-mer pins offset by two amino acids
Description: The peaks represent sites of increased binding by Abs present in the sera. The amino acid sequence for each pin is shown at the bottom. Representative PCOS with 2 dominant peaks. Each color bar represents the time of O.D. reading after addition of chromagen (30, 60, and 90 min).
A Mimotope PIN ELISA assay was performed on 11 PCOS subjects and 5 control subjects using sequential GnRHR-ECL2 synthetic peptides, each 8 amino acid residues in length, and each one different from the preceding peptide by addition of the next two C-terminal residues and removal of the last 2 N-terminal residues (see Table 1). The specific peptides were biochemically bonded to the tip of the pin that is attached to the 96 well plate cover in such a fashion that the peptides were immersed in the buffer/sera (1:200) mixture in the well. After incubation, the pins and wells were washed thoroughly, and the well mixture was then replaced by the anti-human-2nd AB (1:10,000) and incubated and washed again; the colorimetric agent was then added. The wells were sequentially counted at 10 min intervals, and values were compared for analysis of O.D. for each pin. The values and pin sequences are shown with time of reading in color code.

[2] = biological target: T1, GnRHR (Homo sapiens, UniProt P30968); assay: GnRHR-transfected Chem-1 cell-based calcium flux assay; settings: for dosage at which the assay responds (relative Ca^2+ induced Fluo-8 NW fluorescence, % of maximal fluorescence): GnRHR-transfected cells, dosage response curve, n=4
T1 construct: host or cells: Chem-1 cells
T1 sequence (P30968 1-328): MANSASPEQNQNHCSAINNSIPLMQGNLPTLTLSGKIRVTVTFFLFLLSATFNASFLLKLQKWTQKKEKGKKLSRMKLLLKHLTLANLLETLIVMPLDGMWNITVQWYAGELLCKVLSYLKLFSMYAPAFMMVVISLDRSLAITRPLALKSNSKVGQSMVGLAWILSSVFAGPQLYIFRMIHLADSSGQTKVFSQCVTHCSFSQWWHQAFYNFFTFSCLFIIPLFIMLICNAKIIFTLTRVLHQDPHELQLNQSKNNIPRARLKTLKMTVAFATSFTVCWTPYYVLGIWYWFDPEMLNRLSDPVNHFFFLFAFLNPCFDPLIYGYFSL
Description: Cell-based GnRHR-AAb Activity Assays: Activity of GnRHR AAb in IgG purified from sera of subjects with PCOS and controls were analyzed with a GnRHR-transfected Chem-1 cell-based calcium flux assay (Eurofins Scientific, USA). Briefly, Chem-1 cells were dispensed into 96-well plates and incubated 24 h, after which assay plates were washed sufficiently with Hank's Balanced Salt Solution (HBSS) supplemented with 20 mM HEPES, 2.5 mM Probenecid at pH 7.4 to remove all trace of Media. Component. Serum-derived IgG (0.1 mg/mL) was added in the presence and absence of the non-selective GnRHR blockade. Samples were tested in triplicate. FLUO-8®, AM Ca^2+ dye (Cat No: 21080, AAT Bioquest, Inc., Sunnyvale, Calif.) was prepared by dissolving 1 mg of Fluo-8 NW in […] and applied to the assay plate (Ca^2+ dye at 10 μL/10 mL is sufficient for loading one plate). Excitation wave length was set at 470-495 nm and emission wave length at 515-565 nm for Ca^2+ dyes. Maximal fluorescence signal was obtained by HIDEX Sense reader.
Methods Summary: Infertile PCOS subjects based on Rotterdam criteria and infertile ovulatory controls seen at an academic fertility clinic 2012-2016 were included in the study if they had stored serum prior to beginning treatment. Serum was screened by ELISA for AAbs to GnRHR using a synthetic 28-mer peptide from the ECL2 and ECL 1 of human GnRHR as coating antigen. Optical density (OD) values were read at 405 nm at 60 minutes. Activity of GnRHR AAb in sera and in IgG purified from sera of 4 subjects with PCOS and 4 controls was analyzed with a GnRHR-transfected Chem-1 cell-based calcium flux assay. AAb-specific effect was tested by GnRHR blockade. Group data are presented as mean±SD or percent. Groups were compared using Student t or Pearson chi-squared tests. An ROC curve was used to assess OD as a diagnostic test for PCOS.

Molecule	dosage at which the assay responds (relative Ca^2+ induced Fluo-8 NW fluorescence, % of maximal fluorescence) [2]	site of increased binding by Abs in PCOS sera (minipin ELISA peak) [1]	also measured
VTHCSFSQ (listed as Homo sapiens) [SEQ ID NO:6]	–	Overlapping Peak 2	–
FSQCVTHC (listed as Homo sapiens) [SEQ ID NO:8]	–	Overlapping Peak 1	–
CC(=O)N[C@H](Cc1ccc2ccccc2c1)C(=O)N[C@H](Cc1ccc(Cl)cc1)C(=O)N[C@H](Cc1cccnc1)C(=O)N[C@@H](CO)C(=O)N[C@@H](Cc1ccc(O)cc1)C(=O)N[C@H](CCCNC(N)=O)C(=O)N[C@@H](CC(C)C)C(=O)N[C@@H](CCCNC(=N)N)C(=O)N1CCC[C@H]1C(=O)N[C@H](C)C(N)=O [cetrorelix] (Ac-[d2Nal][dPhe(4-Cl)][d3Pal]SY[dCit]LRP[dA]-NH2)	–	–	effect on GnRHR activity (relative fluorescence, % of maximum fluorescence) of PCOS subjects ([2]; cetrorelix 10^−5M, 2-hour exposure, samples from PCOS subjects): suppressed the relative fluorescence expressed as % of maximum fluorescence to baseline; effect on GnRHR activity (relative fluorescence, % of maximum fluorescence) of control subjects ([2]; cetrorelix 10^−5M, 2-hour exposure, samples from control subjects): not significantly changed

More lines, main results first:

dosage at which the assay responds (relative Ca^2+ induced Fluo-8 NW fluorescence, % of maximal fluorescence) [2]	Molecule	site of increased binding by Abs in PCOS sera (minipin ELISA peak) [1]	also measured
10^−8 M	CCNC(=O)[C@@H]1CCCN1C(=O)[C@H](CCCNC(=N)N)NC(=O)[C@H](CC(C)C)NC(=O)[C@@H](CC(C)C)NC(=O)[C@H](Cc1ccc(O)cc1)NC(=O)[C@H](CO)NC(=O)[C@H](Cc1c[nH]c2ccccc12)NC(=O)[C@H](Cc1c[nH]cn1)NC(=O)[C@@H]1CCC(=O)N1 [leuprolide]	–	total GnRHR activity of leuprolide in the presence of IgG purified from PCOS subjects versus buffer+leuprolide ([2]; GnRHR transfected cells, n=4, p<0.01): increased the total activity at least in an additive fashion
10^−9 M	human Leutenizing Hormone Releasing Hormone [hLHRH]	–	–
